Measured values taken from paper PMC11261779, “Structural studies of WDR5 in complex with MBD3C WIN motif reveal a unique binding mode” (The Journal of Biological Chemistry, 2024).
No end group written: not given here.

Experiments:
WDR5 [1] = conditions: cited from earlier work
Source text: (§1) WDR5, a well-established core scaffolding protein found in histone methyltransferase complexes MLL1-4 and SET1A/B ([1], [2]), was initially characterized as an epigenetic histone “writer” to recognize histone H3 lysine 4 (H3K4) and is essential for H3K4 di- and tri-methylation (H3K4me2 and H3K4me3) to activate gene transcription ([1], [3], [4], [5], [6]). Moreover, the interaction between WDR5 and the H3 tail could be regulated by the methylation of H3 arginine 2 (H3R2) ([7], [8]). It is also present in the nonspecific lethal (NSL) complex of histone acetyltransferase, where it is responsible ...

[2] = test system: patient-derived mouse models; conditions: cited from earlier work
Source text: as §1

WDR5 [3] = biological target: T1, WDR5 (Mus musculus, UniProt P61965); assay: ITC of MBD3C peptides titrated into wild-type WDR5 (residues 24–334); conditions: MicroCal PEAQ-ITC, 20 °C, 20 mM Tris-HCl, 200 mM NaCl, pH 7.5, WDR5 WT 44.5 μM, peptide 0.5–1.0 mM, single binding site model, triplicate, N.D. = not detectable binding
T1 construct: to titrate the truncated WDR5 construct (residues 24–334); GST (N, cleaved yes); made in house; host or cells: Escherichia coli BL21 (DE3)
Source text: To validate their findings and determine the dissociation constant (Kd) between WDR5 and MBD3C40-51 more accurately, we performed ITC experiments using a synthetic MBD3C peptide spanning 40 to 51 to titrate the truncated WDR5 construct (residues 24–334).
The DNA fragment encoding the mouse WDR5 seven tandem WD-40 repeats (residues 24–334) was amplified via PCR from the human brain and bone marrow cDNA library and cloned into the pGEX-4T1 vector modified with an N-terminal GST tag and a TEV cleavage site (ENLYFQ/GSHM) (where ‘/’ indicates the cleavage site). All WDR5 mutants were generated using a MutanBEST kit and subsequently confirmed through DNA sequencing. The proteins were expressed in Escherichia coli BL21 (DE3) cells (Novagen) that were cultured in Luria–Bertani medium at 37 °C. The recombinant proteins were induced by 0.2 mM isopropyl β-D-1-thiogalactopyranoside (IPTG) upon reaching an optical density at 600 nm (OD600 nm) 0.8, then transferred to 16 °C and incubated for 18 h. Cells were harvested by centrifugation and resuspended in Buffer A (20 mM Tris-HCl, 500 mM NaCl, pH 8.0), supplemented with DNAaseI (10U) and protein protease inhibitor (Roche, 1 tablet dissolved in 1 ml sterile water), and then lysed by a high-pressure cell homogenizer. The cell debris was removed by centrifugation, and the supernatant was subjected to a 6-h incubation at 4 °C with glutathione Sepharose resins (GE Healthcare) The resins bound by GST-tagged proteins were resuspended in 20 ml Buffer A. Then, the GST tag was removed through digestion with ∼1 mg TEV protease (purified in-house) at 4 °C overnight. […]
(§2) ITC assays were performed on a Microcal PEAQ-ITC instrument (Malvern Panalytical) at 20 °C. Proteins were quantified by absorbance at 280 nm and diluted to 44.5 μM with Buffer D. The peptides were adjusted to 0.5 to 1.0 mM with the same buffer. […]

WDR5^D107R = biological target: T2, WDR5^D107R (Mus musculus, UniProt P61965, D107R); assay: ITC of MBD3C peptide titrated into WDR5 D107R mutant; conditions: 20 °C, 200 mM NaCl, pH 7.5, WDR5 D107R, N.D. = not detectable binding
T2 construct: the mouse WDR5 seven tandem WD-40 repeats (residues 24–334); GST (N, cleaved yes); made in house; host or cells: Escherichia coli BL21 (DE3)
Source text: To validate the importance of the aforementioned residues in the interactions between MBD3C and WDR5, we conducted mutations on Arg43, Arg45, and Phe47 residues within MBD3C and the corresponding residues within WDR5. […] In addition, MBD3C carrying R43K mutation weakens the interaction with WDR5 by ∼9.1-fold (Figs. 2D, S2, and Table 2). […] The Arg-Asp specific interaction was also observed in a previously determined WDR5-KANSL1 complex, thereby contributing to the high binding affinity of KANSL1 for WDR5 ([9]). […] In comparison to the wild-type MBD3C, the dissociation constants were approximately 4-fold and 6.8-fold higher when Phe47 was mutated to alanine and histidine (Figs. 2D, S2, and Table 2), respectively.
The DNA fragment encoding the mouse WDR5 seven tandem WD-40 repeats (residues 24–334) was amplified via PCR from the human brain and bone marrow cDNA library and cloned into the pGEX-4T1 vector modified with an N-terminal GST tag and a TEV cleavage site (ENLYFQ/GSHM) (where ‘/’ indicates the cleavage site). All WDR5 mutants were generated using a MutanBEST kit and subsequently confirmed through DNA sequencing. […]
as §2

Row | Molecule | Kd (WDR5 [3]) | also measured
1 | Cc1ncsc1-c1ccc([C@H](C)NC(=O)[C@@H]2C[C@@H](O)CN2C(=O)[C@@H](NC(=O)CNC(=O)c2ccc(F)c(-c3ccc(N4C[C@@H](C)N(C)[C@@H](C)C4)c(NC(=O)c4c[nH]c(=O)cc4C(F)(F)F)c3)c2)C(C)(C)C)cc1 [MS67] |  | reduction of WDR5 levels in cells (WDR5 [1]): effectively reduced WDR5 levels; tumor growth [2]: suppressed tumor growth
2 | GAAACRVFSPQG [MBD3C^R43A, MBD3C 40–51 peptide with R43A mutation] | no binding was observed | 
3 | GAARCRVFSPQG [MBD3C] |  | Kd (WDR5^D107R): No interaction was observed

More lines, main results first:

Row | Kd (WDR5 [3]) | Molecule | also measured
4 | no binding was observed | GAADCRVFSPQG [MBD3C^R43D, MBD3C 40–51 peptide with R43D mutation] | 
5 | no binding was observed | GAAECRVFSPQG [MBD3C^R43E, MBD3C 40–51 peptide with R43E mutation] | 
